Experimental data taken from patent US9695155B2, “Herbicidal substituted pyrimidinyloxy benzene compounds” (E. I. DU PONT DE NEMOURS AND COMPANY, priority 2013, dated 2017).

Columns and labels:
[1] = system: barnyardgrass; test: Test A preemergence; type: in vivo, Echinochloa crus-galli; conditions: for Plant response rating, Barnyardgrass: 125 g ai/ha, 0 to 100 scale where 0 is no effect and 100 is complete control; for Barnyardgrass plant response rating: 500 g ai/ha, 0 to 100 scale, 0 no effect, 100 complete control, approx. 10 days
Method in brief: (§1)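 Pre- and postemergence greenhouse screen. Soil: loam + sand. Spray carrier: solvent mixture, non-phytotoxic, with surfactant. Post timing at 1–2 leaves, height 2–10 cm. Readout: visual injury on a 0–100 scale roughly 10 days after application, untreated plants as reference.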

[2] = system: giant foxtail; test: Test A preemergence; type: in vivo, Setaria faberii; conditions: for Plant response rating, Foxtail, Giant: 125 g ai/ha, 0 to 100 scale where 0 is no effect and 100 is complete control; for Foxtail, Giant plant response rating: 500 g ai/ha, 0 to 100 scale, 0 no effect, 100 complete control, approx. 10 days
Method in brief: as §1

[3] = system: velvetleaf; test: Test A postemergence; type: in vivo, Abutilon theophrasti
Method in brief: as §1

[4] = system: Heteranthera limosa; test: Test B flooded paddy test; type: in vivo; conditions: Flood, 250 g ai/ha; 0 to 100 scale where 0 is no effect and 100 is complete control
Method in brief: (§2)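 Plants at 2-leaf stage; pots flooded to 3 cm above soil and compound applied directly into paddy water, depth held throughout. After 13 to 15 days in greenhouse, visual rating versus controls on 0 (no effect) to 100 (complete control) scale.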

[5] = system: barnyardgrass; test: Test A postemergence; type: in vivo, Echinochloa crus-galli
Method in brief: as §1

[6] = system: corn; test: Test A postemergence; type: in vivo, Zea mays
Method in brief: as §1

[7] = system: large (Lg) crabgrass; test: Test A preemergence; type: in vivo, Digitaria sanguinalis; conditions: for Plant response rating, Crabgrass, Large: 125 g ai/ha, 0 to 100 scale where 0 is no effect and 100 is complete control; for Crabgrass, Large plant response rating: 500 g ai/ha, 0 to 100 scale, 0 no effect, 100 complete control, approx. 10 days
Method in brief: as §1

[8] = system: pigweed; test: Test A postemergence; type: in vivo, Amaranthus retroflexus
Method in brief: as §1

[9] = system: corn; test: Test A preemergence; type: in vivo, Zea mays; conditions: for Plant response rating, Corn: 125 g ai/ha, 0 to 100 scale where 0 is no effect and 100 is complete control; for Corn plant response rating: 500 g ai/ha, 0 to 100 scale, 0 no effect, 100 complete control, approx. 10 days
Method in brief: as §1

[10] = system: velvetleaf; test: Test A preemergence; type: in vivo, Abutilon theophrasti; conditions: for Plant response rating, Velvetleaf: 125 g ai/ha, 0 to 100 scale where 0 is no effect and 100 is complete control; for Velvetleaf plant response rating: 500 g ai/ha, 0 to 100 scale, 0 no effect, 100 complete control, approx. 10 days
Method in brief: as §1

[11] = system: morningglory; test: Test A postemergence; type: in vivo, Ipomoea spp.
Method in brief: as §1

[12] = system: wheat; test: Test A preemergence; type: in vivo, Triticum aestivum; conditions: for Plant response rating, Wheat: 125 g ai/ha, 0 to 100 scale where 0 is no effect and 100 is complete control; for Wheat plant response rating: 500 g ai/ha, 0 to 100 scale, 0 no effect, 100 complete control, approx. 10 days
Method in brief: as §1

[13] = system: pigweed; test: Test A preemergence; type: in vivo, Amaranthus retroflexus; conditions: for Plant response rating, Pigweed: 125 g ai/ha, 0 to 100 scale where 0 is no effect and 100 is complete control; for Pigweed plant response rating: 500 g ai/ha, 0 to 100 scale, 0 no effect, 100 complete control, approx. 10 days
Method in brief: as §1

[14] = system: rice; test: Test B flooded paddy test; type: in vivo, Oryza sativa; conditions: Flood, 250 g ai/ha; 0 to 100 scale where 0 is no effect and 100 is complete control
Method in brief: as §2

[15] = system: giant foxtail; test: Test A postemergence; type: in vivo, Setaria faberii
Method in brief: as §1

[16] = system: sedge, umbrella; test: Test B flooded paddy test; type: in vivo, Cyperus difformis; conditions: Flood, 250 g ai/ha; 0 to 100 scale where 0 is no effect and 100 is complete control
Method in brief: as §2

[17] = system: barnyardgrass; test: Test B flooded paddy test; type: in vivo, Echinochloa crus-galli; conditions: Flood, 250 g ai/ha; 0 to 100 scale where 0 is no effect and 100 is complete control
Method in brief: as §2

[18] = system: wheat; test: Test A postemergence; type: in vivo, Triticum aestivum
Method in brief: as §1

[19] = system: morningglory; test: Test A preemergence; type: in vivo, Ipomoea spp.; conditions: for Plant response rating, Morningglory: 125 g ai/ha, 0 to 100 scale where 0 is no effect and 100 is complete control; for Morningglory plant response rating: 500 g ai/ha, 0 to 100 scale, 0 no effect, 100 complete control, approx. 10 days
Method in brief: as §1

[20] = system: large (Lg) crabgrass; test: Test A postemergence; type: in vivo, Digitaria sanguinalis
Method in brief: as §1

[21] = 125 g ai/ha, 0 to 100 scale where 0 is no effect and 100 is complete control
[22] = 500 g ai/ha, 0 to 100 scale, 0 no effect, 100 complete control

SMILES	Plant response rating, Barnyardgrass [1]	Barnyardgrass plant response rating [1]	Plant response rating, Foxtail, Giant [2]	Foxtail, Giant plant response rating [2]	Plant response rating, Velvetleaf [3, 21]	Plant response rating, Velvetleaf [3, 22]	Plant response rating, Ducksalad [4]	Plant response rating, Barnyardgrass [5, 21]	Plant response rating, Barnyardgrass [5, 22]	Plant response rating, Corn [6, 21]	Plant response rating, Corn [6, 22]	Plant response rating, Crabgrass, Large [7]	Crabgrass, Large plant response rating [7]	Plant response rating, Pigweed [8, 21]	Plant response rating, Pigweed [8, 22]	Plant response rating, Corn [9]	Corn plant response rating [9]	Plant response rating, Velvetleaf [10]	Velvetleaf plant response rating [10]	Plant response rating, Morningglory [11, 21]	other results
Cc1cccc(Oc2ncc(Cl)cn2)c1-n1cc(Br)cn1 [Compound 44]	50	100	60	100	100	100	100	30	90	20	40	90	100	70	100	0	20	70	100	20	Plant response rating, Morningglory [11, 22]: 60; Plant response rating, Wheat [12]: 0; Wheat plant response rating [12]: 20; Plant response rating, Pigweed [13]: 100; Pigweed plant response rating [13]: 100; Plant response rating, Rice [14]: 45; Plant response rating, Foxtail, Giant [15, 21]: 50; Plant response rating, Foxtail, Giant [15, 22]: 90; Plant response rating, Sedge, Umbrella [16]: 90; Plant response rating, Barnyardgrass [17]: 20; Plant response rating, Wheat [18, 21]: 0; Plant response rating, Wheat [18, 22]: 30; Plant response rating, Morningglory [19]: 50; Morningglory plant response rating [19]: 60; Plant response rating, Crabgrass, Large [20, 21]: 80; Plant response rating, Crabgrass, Large [20, 22]: 100
Cc1cccc(Oc2ncc(Br)cn2)c1-n1cc(Br)cn1 [Compound 45]	30	100	90	100	100	100	85	40	100	10	70	90	100	60	80	0	20	100	100	10	Plant response rating, Morningglory [11, 22]: 20; Plant response rating, Wheat [12]: 0; Wheat plant response rating [12]: 0; Plant response rating, Pigweed [13]: 100; Pigweed plant response rating [13]: 100; Plant response rating, Rice [14]: 0; Plant response rating, Foxtail, Giant [15, 21]: 70; Plant response rating, Foxtail, Giant [15, 22]: 90; Plant response rating, Sedge, Umbrella [16]: 75; Plant response rating, Barnyardgrass [17]: 30; Plant response rating, Wheat [18, 21]: 0; Plant response rating, Wheat [18, 22]: 40; Plant response rating, Morningglory [19]: 0; Morningglory plant response rating [19]: 10; Plant response rating, Crabgrass, Large [20, 21]: 60; Plant response rating, Crabgrass, Large [20, 22]: 100
FC(F)(F)c1ccc(Oc2ncc(Cl)cn2)c(-n2cc(Br)cn2)c1 [Compound 48]	0	0	10	50	0	10	0	0	10	0	0	50	80	20	50	0	0	0	0	20	Plant response rating, Morningglory [11, 22]: 30; Plant response rating, Wheat [12]: 0; Wheat plant response rating [12]: 0; Plant response rating, Pigweed [13]: 0; Pigweed plant response rating [13]: 0; Plant response rating, Rice [14]: 0; Plant response rating, Foxtail, Giant [15, 21]: 0; Plant response rating, Foxtail, Giant [15, 22]: 20; Plant response rating, Sedge, Umbrella [16]: 0; Plant response rating, Barnyardgrass [17]: 0; Plant response rating, Wheat [18, 21]: 0; Plant response rating, Wheat [18, 22]: 0; Plant response rating, Morningglory [19]: 0; Morningglory plant response rating [19]: 0; Plant response rating, Crabgrass, Large [20, 21]: 10; Plant response rating, Crabgrass, Large [20, 22]: 20
